# Measured values reported in paper PMC8126654, “Novel Pan-Pim Kinase Inhibitors With Imidazopyridazine and Thiazolidinedione Structure Exert Potent Antitumor Activities” (Frontiers in Pharmacology, 2021).
# Legend:
# PC-3 = test: Cell cycle analysis, PC-3; format: cell-based; conditions: 24 h (DMSO 41%)
# Source text: (§1) After treatment, cells were fixed and stained with propidium iodide using the Cell Cycle Phase Determination kit (Cayman Chemical, Ann Arbor, MI, United States) and analyzed by Guava EasyCyteTM Plus System (Merck Millipore).
# MV-4-11 [1] = test: Cell cycle analysis, MV-4-11; format: cell-based; conditions: 24 h (DMSO 52%)
# Source text: as §1
# cancer cell lines = test: Cytotoxicity assay for cell survival (cancer cell proliferation); format: cell-based; conditions: 96 hours; read-out: IC50 for proliferation of a broad spectrum of cancer cell lines (range)
# Source text: We obtained colon cancer HCT116 and HT-29 cells, prostate cancer PC-3, DU145, and LNCaP cells, lung cancer NCI-H460 and NCI-H522 cells, breast cancer MDA-MB-231 cells, AML MV-4-11 cells, and chronic myeloid leukemia (CML) K-562, MEG-01, and KU812 cells from American Type Culture Collection (Manassas, VA, United States); stomach cancer MKN45 cells from the Health Science Research Resources Bank (Osaka, Japan); pancreatic cancer AsPC-1 and MIA PaCa-2, and lung cancer A549 cells from DS Pharma Biomedical (Osaka, Japan). All cell lines were cultured in RPMI1640 medium (Life Technologies; Thermo Fisher Scientific Inc.) with 10% (v/v) fetal bovine serum (FBS; Sigma-Aldrich; Merck KgaA) at 37°C in 5% CO2.
# Cells were seeded in 96-well plates and test compounds were added to the cultures at several concentrations.
# MKN45 = test: Immunoblot analysis of phosphorylation of Pim kinase substrates, MKN45; format: cell-based; conditions: MKN45, 4 h
# Protocol: (§2) Cells were plated overnight and then treated with test compounds for 4 hours. Then, the cells were lyzed in solubilization buffer [10 mM Tris-HCl (pH7.4), 0.1% (w/v) NP-40, 0.1% (w/v) sodium deoxycholate, 0.1% (w/v) SDS, 0.15 M NaCl, 1 mM EDTA, 10 µM aprotinin] with phosphatase inhibitor cocktails (Nakarai Tesque, Kyoto, Japan), and subjected to SDS-PAGE using 15% (w/v) gels under reducing conditions. The separated proteins were electrotransferred to Immobilon transfer membranes (Merck Millipore, Darmstadt, Germany). Then, each membrane was reacted with primary antibodies, which were subsequently complexed with appropriate horseradish peroxidase-conjugated secondary antibodies. Signals were detected using the ECL Western Blotting Detection System (GE Healthcare Life Sciences) and protein expression was quantified with a LAS-3000 Luminescent Image Analyzer (GE Healthcare Life Sciences). The protein bands were quantified using ImageQuant TL software (GE Healthcare Life Sciences).
# FLT3 = biological target: T1, FLT3 (Homo sapiens, UniProt P36888); test: FLT3 kinase activity assay (FRET-based Z'-LYTE); format: biochemical; conditions: ATP 500 µM; read-out: IC50 against FLT3 kinase
# T1 construct: purchased Life Technologies; Thermo Fisher Scientific Inc
# T1 sequence (P36888 27-993): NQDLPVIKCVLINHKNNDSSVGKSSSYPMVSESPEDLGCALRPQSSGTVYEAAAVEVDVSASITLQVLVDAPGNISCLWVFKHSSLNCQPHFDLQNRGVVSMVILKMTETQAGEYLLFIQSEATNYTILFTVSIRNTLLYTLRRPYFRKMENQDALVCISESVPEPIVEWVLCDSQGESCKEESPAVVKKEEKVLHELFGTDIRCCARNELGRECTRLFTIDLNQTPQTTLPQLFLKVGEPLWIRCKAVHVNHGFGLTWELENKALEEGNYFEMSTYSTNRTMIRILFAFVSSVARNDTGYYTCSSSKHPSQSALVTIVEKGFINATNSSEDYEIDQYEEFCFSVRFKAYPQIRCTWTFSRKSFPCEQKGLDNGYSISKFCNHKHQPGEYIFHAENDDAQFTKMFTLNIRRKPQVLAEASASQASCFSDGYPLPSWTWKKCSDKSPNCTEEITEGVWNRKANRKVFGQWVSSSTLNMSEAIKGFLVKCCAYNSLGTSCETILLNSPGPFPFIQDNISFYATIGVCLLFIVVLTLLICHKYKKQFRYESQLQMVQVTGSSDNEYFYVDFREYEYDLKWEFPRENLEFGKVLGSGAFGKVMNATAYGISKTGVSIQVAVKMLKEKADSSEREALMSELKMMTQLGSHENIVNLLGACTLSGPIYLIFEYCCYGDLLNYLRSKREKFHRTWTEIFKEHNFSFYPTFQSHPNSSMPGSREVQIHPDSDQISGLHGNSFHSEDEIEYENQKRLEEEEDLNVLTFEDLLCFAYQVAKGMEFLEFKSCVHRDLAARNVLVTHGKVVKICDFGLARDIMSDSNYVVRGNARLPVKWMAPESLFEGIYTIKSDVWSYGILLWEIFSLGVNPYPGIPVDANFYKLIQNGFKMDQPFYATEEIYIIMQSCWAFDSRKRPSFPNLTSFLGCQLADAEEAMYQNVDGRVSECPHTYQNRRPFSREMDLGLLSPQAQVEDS
# Protocol: The inhibition ratios of test compounds for Pim-1, 2 (Life Technologies; Thermo Fisher Scientific Inc., MA, United States), 3 (Merck KgaA), and FLT3 (Life Technologies; Thermo Fisher Scientific Inc., MA, United States) were determined using a modified FRET-based Z′-LYTE kinase assay kit (Invitrogen; Thermo Fisher Scientific Inc.). The Ser/Thr 7 peptide and Tyr-2 peptide were used as substrates for Pim kinases and FLT3, respectively. The reactions were carried out in a 384-well plate with a 10 µL reaction volume per well containing 1 µM substrates in 50 mM HEPES buffer with pH 7.5, 0.01% BRIJ-35, 10 mM MgCl2, 1 mM EGTA, and an appropriate amount of kinases (Pim-1: 0.03 μg/ml, Pim-2: 0.2 μg/ml, Pim-3: 0.2 μg/ml, FLT3: 0.1 μg/ml) with test compounds. The final reaction concentrations of ATP were 400, 5, 100, and 500 µM for Pim-1, 2, 3, and FLT3 respectively. After 1 h incubation, reactions were developed and terminated, and fluorescence ratios were calculated following the manufacturer’s protocol.
# Pim-1, 2, and 3 = test: Kinetic assay (Lineweaver-Burk analysis); format: biochemical
# Protocol: Enzyme kinetic experiments were performed at pH 7.5 in 50 mM HEPES buffer with 1 mM EGTA, 10 mM MgCl2, and 0.01% Brij-35. […] Plates were immediately placed into a Caliper LabChip EZ Reader II (PerkinElmer Inc.) and wells were sampled periodically throughout an 1-hour reaction period for initial reaction rate. The fluorescent product and substrate were separated and monitored on a Caliper microfluidic instrument. The conversion of substrate was calculated with Caliper software. Ki values were determined from the double reciprocal Lineweaver-Burk plot.
# MV-4-11 [2] = test: Immunoblot analysis of phosphorylation of Pim kinase substrates, MV-4-11; format: cell-based; conditions: MV-4-11, 4 h
# Protocol: as §2
smiles,measurement,setting,value
"CN1CCN(c2ccc(-c3cnc4ccc(/C=C5\SC(=O)NC5=O)nn34)cc2)CC1 [YPC-21440, (Z)-5-([3-{4-(4-methylpiperazin-1-yl)phenyl}imidazo[1,2-b]pyridazin-6-yl]methylene)thiazolidine-2,4-dione]",Percentage of cells in G1 phase,"PC-3; PC-3, 0.3 µM",55%
same,Percentage of cells in G1 phase,"PC-3; PC-3, 1 µM",65%
same,Percentage of cells in G1 phase,"MV-4-11 [1]; MV-4-11, 0.3 µM",55%
same,Percentage of cells in G1 phase,"MV-4-11 [1]; MV-4-11, 1 µM",77%
same,IC50,cancer cell lines,27 to 1000 nM
same,"Phosphorylation levels of Bad, 4EBP, and p21",MKN45,decreased
same,IC50,FLT3,390 nM
same,Mode of inhibition of Pim kinases (Lineweaver-Burk),"Pim-1, 2, and 3",ATP competitive manner
same,Phosphorylation level of 4EBP,MV-4-11 [2],decreased
